This is an account of results in US5986136A, “Photolabeling reagent” (President and Fellows of Harvard College, priority 1998, dated 1999).

Molecules are shown by their SMILES. “Also recorded” adds a separate entry of the source.

Data set [1] deals with anti-substance P antibody. Kind of data set: Radioimmunoassay: displacement of [^125 I]BHSP from anti-substance P antibody. It is filed as binding. The settings on record: for IC50: antibody dilution 1/160,000, [^125 I]BHSP 3.3 pM, 4° C. overnight, mean±standard deviation of ≥3 experiments.
Data set [2] deals with T1, SPR in P388D1 cells (Mus musculus, UniProt P30548).
T1 construct: a nontransfected murine macrophage/monocyte cell line; endogenous in cells; host or cells: P388D1 (murine macrophage/monocyte cell line)
It is filed as binding, murine. As for the experimental part:
Percentage of tracer bound was determined by solubilization and counting after washing away excess unbound tracer. […] The data shown is the average of four experiments containing triplicate samples in each. IC50 is expressed as the mean±standard deviation of ≥4 experiments.
Protease inhibitors (0.004% bacitracin, 0.0002% chymostatin, 0.0004% leupeptin) and 0.1% BSA was added to the confluent cells (approximately 1×10^6 cells/well in DMEM and 10% FBS) and incubated for 30 min at room temperature (25° C.). The cells were then washed twice (0.5 ml/well) with ice-cold buffer (DMEM+20 mM HEPES, pH 7.2) and incubated with 0.5 ml of buffer on ice for at least 10 min in the presence of protease inhibitors and 0.1% BSA. […] After incubation, the cells were washed twice with 0.5 ml/well phosphate-buffered saline (104 mM NaCl, 2.7 mM KCl, 10 mM Na2 HPO4, 1.8 mM KH2 PO4, pH 7.2), then solubilized by 0.5 ml lysis buffer (1% Nonidet P-40, 0.2% SDS, 150 mM NaCl, 50 mM Tris, pH 8.0) for 20 min and transferred for gamma counting. […] Curve fitting was performed as described above.

For data set [3], the target named is T1, SPR in P388D1 cells. Kind of data set: Photoaffinity labeling of SPR in P388D1 cells. The settings on record: presence of excess unlabeled SP or CP-96,345. It is filed as binding, murine.
Experimental: P388D1 cells (5×10^6 cells/5 ml) were inoculated on FBS-pretreated dishes (60 mm) in DMEM with 10% FBS and grown overnight. The cultured cells (approximately 1×10^7) were incubated with protease inhibitors and 0.1% BSA for 30 min at room temperature (25° C.). The cells were then washed twice (5 ml) with ice-cold buffer (DMEM+20 mM HEPES, pH 6.7) and incubated with 5 ml of buffer on ice for at least 10 min, in the presence of protease inhibitors, and 0.1% BSA. […] The dishes were then frozen by placement on crushed dry ice. The frozen sample was irradiated under nitrogen for 2 h using a focused HBO 100-watt mercury short arc lamp through an optical filter to eliminate light below 310 nm. A second filter removed infrared wavelengths (>900 nm) to minimize sample heating during photolysis (Li et al., 1995a). Alternatively, the sample can be irradiated in a commerical photoreactor at 3500 Å.
After photolysis, the sample was thawed and any remaining attached cells were scraped from the bottom of the plate. The sample was transferred to microfuge tubes and centrifuged at 16,000 g for 30 min. The pelleted cells were hypotonically lysed by resuspending in 0.3 ml of 5 mM Tris-HCl, pH 8.0, for 15 min at room temperature. Then the samples were homogenized and centrifuged at 500 g for 15 min to remove debris. […]
Data set [4] is described as follows: Retention of radioiodine during photolysis (model benzophenone). The settings on record: receptor photolabeling conditions, twice the photolysis time. It is filed as physicochemical.

T1 sequence (P30548 whole entry, one chain of several): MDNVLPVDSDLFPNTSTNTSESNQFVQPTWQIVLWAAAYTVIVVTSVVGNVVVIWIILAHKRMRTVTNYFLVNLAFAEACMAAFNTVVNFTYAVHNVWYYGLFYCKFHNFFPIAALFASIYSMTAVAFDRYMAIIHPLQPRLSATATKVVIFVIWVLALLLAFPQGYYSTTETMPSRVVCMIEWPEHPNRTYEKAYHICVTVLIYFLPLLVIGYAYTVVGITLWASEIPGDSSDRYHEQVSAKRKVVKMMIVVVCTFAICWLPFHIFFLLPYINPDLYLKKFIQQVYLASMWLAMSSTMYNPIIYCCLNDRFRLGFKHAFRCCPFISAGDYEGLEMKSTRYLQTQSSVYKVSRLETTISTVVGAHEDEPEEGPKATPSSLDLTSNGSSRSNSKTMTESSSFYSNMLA

Regarding `CSCC[C@H](NC(=O)[C@H](CC(C)C)NC(=O)CNC(=O)[C@H](Cc1ccccc1)NC(=O)[C@H](Cc1ccccc1)NC(=O)[C@H](CCC(N)=O)NC(=O)[C@H](CCC(N)=O)NC(=O)[C@@H]1CCCN1C(=O)[C@H](CCCCN)NC(=O)[C@@H]1CCCN1C(=O)[C@@H](N)CCCNC(=N)N)C(N)=O` [SP, reference compound], the IC50 – broadly, the concentration that gives 50% inhibition – in data set [1] amounted to 0.071 ± 0.006 nM.
With `CSCC[C@H](NC(=O)[C@H](CC(C)C)NC(=O)CNC(=O)[C@@H](Cc1ccc(C(=O)c2ccc(O)cc2)cc1)NC(=O)[C@H](Cc1ccccc1)NC(=O)[C@H](CCC(N)=O)NC(=O)[C@H](CCC(N)=O)NC(=O)[C@@H]1CCCN1C(=O)[C@H](CCCCN)NC(=O)[C@@H]1CCCN1C(=O)[C@@H](N)CCCNC(=N)N)C(N)=O` [D-HBPA^8 -SP], the IC50 at SPR in P388D1 cells [2] (tracer 25 pM [^125 I]BHSP, 2 h on ice, mean±standard deviation of ≥4 experiments, read-out: IC50 for displacement of [^125 I]BHSP) was 1.5 ± 0.34 nM; in data set [1] it was 0.39 ± 0.04 nM.
Regarding `CSCC[C@H](NC(=O)[C@H](CC(C)C)NC(=O)CNC(=O)[C@H](Cc1ccc(C(=O)c2ccc(O)cc2)cc1)NC(=O)[C@H](Cc1ccccc1)NC(=O)[C@H](CCC(N)=O)NC(=O)[C@H](CCC(N)=O)NC(=O)[C@@H]1CCCN1C(=O)[C@H](CCCCN)NC(=O)[C@@H]1CCCN1C(=O)[C@@H](N)CCCNC(=N)N)C(N)=O` [L-HBPA^8 -SP, ArgProLysProGlnGlnPhe(L-HBPA)GlyLeuMet-NH2], the “activity with both a SP specific antibody and SPR, receptor part (in words)” value at SPR in P388D1 cells [2] (first HPLC peak versus second) was “more active than the second”. Besides, the “affinity / specificity for SPR (in words)” value on SPR in P388D1 cells [2] (murine SP receptor, P388D1 cells) is “bind with high affinity and specificity to SPR; also recorded: a specific as well as a high affinity ligand for the receptor”. In data set [1], this compound gave a half-inhibitory concentration (IC50) of 0.052 ± 0.008 nM. Moreover, the “affinity for anti-SP antiserum (in words)” value in data set [1] (compared with native SP or other diastereomer) is “binds to the antibody with a higher affinity”. In addition, the “activity with both a SP specific antibody and SPR, antibody part (in words)” value in data set [1] (first HPLC peak versus second) is given as “more active than the second”.
As for `COc1ccccc1CN[C@H]1C2CCN(CC2)[C@H]1C(c1ccccc1)c1ccccc1` [CP-96,345, (2S, 3S)-cis-2-(diphenylmethyl)-N-[(2-methoxyphenyl)-methyl]-1-aza-bicyclo[2.2.2]octan-3-amine], on SPR in P388D1 cells [3], the “inhibition of photolabeling by [^125 I]HBPA^8 -SP” value is given as “completely inhibited”.
As for `O=C(c1ccccc1)c1ccc(O)c([125I])c1` [[^125 I]-3-iodo-4-hydroxybenzophenone], in data set [4], the “radioiodine remaining incorporated in the starting material after photolysis” value is listed as “greater than 98%”.
